Experimental data from patent US6469056B1, “Pharmaceutically active compounds, their preparation and use as ECE-inhibitors” (Abbott Laboratories, priority 1997, dated 2002).
pIC50: −log10 of the molar value.

Assays:
Type in all cases: biochemical
[1] = target: NEP 24.11 (neutral endopeptidase 24.11) (Homo sapiens, UniProt P08473); assay: NEP 24.11 inhibition
[2] = target: ACE (angiotensin converting enzyme) (Homo sapiens, UniProt P12821); assay: ACE inhibition
[3] = target: T1, recombinant human ECE from CHO cells (Homo sapiens, UniProt P42892); assay: ECE inhibitor test, IC50 determination (Big ET1 cleavage, HPLC); settings: Big ET1 substrate, 1 hour at 37° C., pH 7.2
T1 construct: made in house; host or cells: CHO cells
T1 sequence (P42892 1-770): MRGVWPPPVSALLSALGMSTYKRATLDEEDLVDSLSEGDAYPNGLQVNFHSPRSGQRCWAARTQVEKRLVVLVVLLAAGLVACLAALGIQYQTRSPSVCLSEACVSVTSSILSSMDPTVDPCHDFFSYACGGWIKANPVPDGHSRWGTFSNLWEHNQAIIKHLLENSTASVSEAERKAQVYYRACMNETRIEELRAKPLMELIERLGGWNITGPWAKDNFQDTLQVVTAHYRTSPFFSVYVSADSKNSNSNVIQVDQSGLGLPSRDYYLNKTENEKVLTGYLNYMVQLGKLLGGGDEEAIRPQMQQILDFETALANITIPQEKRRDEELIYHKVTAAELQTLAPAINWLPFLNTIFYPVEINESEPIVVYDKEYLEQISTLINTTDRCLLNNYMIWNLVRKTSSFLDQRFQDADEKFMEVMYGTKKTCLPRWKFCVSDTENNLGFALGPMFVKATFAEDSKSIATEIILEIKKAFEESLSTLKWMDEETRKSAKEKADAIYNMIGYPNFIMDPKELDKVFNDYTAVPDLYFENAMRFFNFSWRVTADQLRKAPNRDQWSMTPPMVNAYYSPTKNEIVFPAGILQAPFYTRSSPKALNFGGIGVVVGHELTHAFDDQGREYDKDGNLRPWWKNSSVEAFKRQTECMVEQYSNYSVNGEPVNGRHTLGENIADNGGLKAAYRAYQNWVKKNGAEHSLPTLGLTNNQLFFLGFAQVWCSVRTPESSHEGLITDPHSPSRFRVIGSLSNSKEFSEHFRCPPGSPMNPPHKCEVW
Procedure: ECE Inhibitor Tests, IC50 Determinations
Inhibitors of endothelin converting enzyme (ECE) were tested using recombinant human ECE from CHO cells as described in Schmidt et al. (FEBS Letters 356, 1994: 238-243).
The enzyme preparations employed were, after membrane isolation and solubilization, further purified by Mono-Q chromatography and WGA lectin chromatography. The preparations obtained in this way contained no interfering foreign protease activities and had specific activities in the range 1-20 mU/mg. 5 μl of this enzyme solution were preincubated with 495 μl of test buffer (100 mM Pi, 500 mM NaCl, 0,1 mg/ml BSA pH 7.2) and with in each case 5 μl of appropriately concentrated solutions (10^−3 M, 10^−4 M, 10^−5 M etc.) of the inhibitors in the test buffer for 10 minutes. 50 μl aliquots were mixed with 5 μl of 2×10^−3 M Big ET1 solution (=Big Endothelin1) in 0.02% acetic acid. The mixtures were stopped after 1 hour at 37° C. by adding 150 μl of 0.5% TFA (=trifluoroacetic acid) in water, and centrifuged at 10000×g for 5 minutes, and the enzyme reaction was determined by measuring the endothelin formed by means of reversed phase HPLC as described in Takada et al. (Biochem. Biophys. Res. Comm. 176, 1991, 860), K. Ohnaka et al. (Biochem. Biophys. Res. Commun. 168, 1990, 1128). An inhibition plot was produced from the values of the inhibition at the various inhibitor concentrations, and the half-maximum inhibition (IC50) was read off as a measure of the strength of the inhibitory effect.

Sequence of ACE (angiotensin converting enzyme) (P12821 30-1306, species assumed): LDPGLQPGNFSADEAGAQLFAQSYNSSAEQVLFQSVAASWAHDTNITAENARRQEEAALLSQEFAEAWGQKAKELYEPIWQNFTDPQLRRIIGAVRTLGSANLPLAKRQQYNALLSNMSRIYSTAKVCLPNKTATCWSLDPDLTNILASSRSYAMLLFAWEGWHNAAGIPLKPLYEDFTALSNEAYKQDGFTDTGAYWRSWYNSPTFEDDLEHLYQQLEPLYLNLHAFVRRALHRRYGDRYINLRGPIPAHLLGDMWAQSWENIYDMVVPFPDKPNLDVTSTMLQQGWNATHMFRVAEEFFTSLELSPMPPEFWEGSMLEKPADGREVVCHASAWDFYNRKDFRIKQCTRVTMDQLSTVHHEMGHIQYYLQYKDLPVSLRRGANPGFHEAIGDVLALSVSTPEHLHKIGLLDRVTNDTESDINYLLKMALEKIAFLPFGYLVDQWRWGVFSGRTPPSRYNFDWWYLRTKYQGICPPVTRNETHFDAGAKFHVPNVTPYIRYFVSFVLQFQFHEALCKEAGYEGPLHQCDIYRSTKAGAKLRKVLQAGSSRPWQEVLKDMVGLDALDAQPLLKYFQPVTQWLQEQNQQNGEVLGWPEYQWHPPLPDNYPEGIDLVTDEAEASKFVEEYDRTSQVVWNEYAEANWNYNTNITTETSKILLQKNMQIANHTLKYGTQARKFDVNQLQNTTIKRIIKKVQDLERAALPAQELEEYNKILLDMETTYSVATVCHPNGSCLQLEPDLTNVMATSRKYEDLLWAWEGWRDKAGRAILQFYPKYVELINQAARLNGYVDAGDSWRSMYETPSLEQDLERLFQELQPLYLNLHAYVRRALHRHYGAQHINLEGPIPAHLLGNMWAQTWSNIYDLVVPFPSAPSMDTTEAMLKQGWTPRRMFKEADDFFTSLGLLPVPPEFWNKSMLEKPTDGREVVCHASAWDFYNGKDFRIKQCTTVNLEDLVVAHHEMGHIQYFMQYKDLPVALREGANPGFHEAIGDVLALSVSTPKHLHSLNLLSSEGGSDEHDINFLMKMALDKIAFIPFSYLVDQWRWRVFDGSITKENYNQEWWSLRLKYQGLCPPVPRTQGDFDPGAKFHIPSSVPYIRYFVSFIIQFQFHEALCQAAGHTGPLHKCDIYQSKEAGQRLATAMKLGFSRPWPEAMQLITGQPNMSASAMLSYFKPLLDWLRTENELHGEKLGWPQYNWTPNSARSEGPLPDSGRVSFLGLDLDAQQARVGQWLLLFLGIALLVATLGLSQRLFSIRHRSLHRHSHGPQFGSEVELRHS
Sequence of NEP 24.11 (neutral endopeptidase 24.11) (P08473 whole entry, species assumed): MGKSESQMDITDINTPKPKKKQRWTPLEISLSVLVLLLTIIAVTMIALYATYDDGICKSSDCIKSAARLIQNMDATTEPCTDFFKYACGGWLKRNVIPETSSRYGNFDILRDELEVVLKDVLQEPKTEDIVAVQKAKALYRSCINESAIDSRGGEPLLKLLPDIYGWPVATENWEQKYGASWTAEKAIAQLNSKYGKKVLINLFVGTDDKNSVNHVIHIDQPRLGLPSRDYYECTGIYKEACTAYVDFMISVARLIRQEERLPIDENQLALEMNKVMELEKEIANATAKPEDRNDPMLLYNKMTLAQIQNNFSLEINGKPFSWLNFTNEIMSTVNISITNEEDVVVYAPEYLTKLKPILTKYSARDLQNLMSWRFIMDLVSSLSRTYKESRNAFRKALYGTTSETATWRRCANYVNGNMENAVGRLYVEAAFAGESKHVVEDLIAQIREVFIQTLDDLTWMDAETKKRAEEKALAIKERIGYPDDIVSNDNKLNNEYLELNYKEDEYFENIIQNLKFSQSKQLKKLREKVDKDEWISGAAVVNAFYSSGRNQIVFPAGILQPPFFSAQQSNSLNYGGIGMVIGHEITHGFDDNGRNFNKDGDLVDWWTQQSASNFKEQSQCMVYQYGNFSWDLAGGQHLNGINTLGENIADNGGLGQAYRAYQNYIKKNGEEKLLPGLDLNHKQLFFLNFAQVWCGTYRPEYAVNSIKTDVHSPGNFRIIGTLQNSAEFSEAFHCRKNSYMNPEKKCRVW

| SMILES | pIC50 [1] | pIC50 [2] | pIC50 [3] |
| --- | --- | --- | --- |
| O=C(N[C@@H](Cc1ccccc1)CN(C(=O)c1ccc(Cl)s1)[C@@H](Cc1ccccc1)C(=O)O)OCC1c2ccccc2-c2ccccc21 [Compound 1a] | < 4.00 | < 4.00 | 5.70 |
| CC(C)(C)SSC[C@@H](CN(C(=O)c1ccc(Cl)s1)[C@@H](Cc1ccccc1)C(=O)O)NC(=O)OCC1c2ccccc2-c2ccccc21 [Compound 1b] | < 4.00 | < 4.00 | 5.52 |
| O=C(N[C@@H](Cc1ccccc1)CN(C(=O)c1ccc2ccccc2c1)[C@@H](Cc1ccccc1)C(=O)O)OCC1c2ccccc2-c2ccccc21 [Compound 1e] | < 4.00 | < 4.00 | 5.40 |
